Test system: hypertriglyceridemic patients with cardiovascular disease or at high risk for cardiovascular disease
Test: REDUCE-IT: electrocardiograms, vital signs (blood pressure, pulse), weight and waist circumference
Type: in vivo, human
Description: Blood pressure was measured using a standardized process: • Patient sat for ≥5 minutes with feet flat on the floor and measurement arm supported so that the midpoint of the manometer cuff was at heart level; and • Used a mercury sphygmomanometer or automatic blood pressure device with an appropriately sized cuff with the bladder centered over the brachial artery.
Blood pressure was recorded to the nearest 2 mmHg mark on the manometer or to the nearest whole number on an automatic device. A blood pressure reading was repeated 1 to 2 minutes later, and the second reading recorded to the nearest 2 mmHg mark.
Height, Weight and Body Mass Index: Height and weight were measured. Measurement of weight was performed with the patient dressed in indoor clothing, with shoes removed, and bladder empty.
Waist Circumference: Waist circumference was measured with a tape measure, as follows: Start at the top of the hip bone then bring the tape measure all the way around—level with the navel. Make sure the tape measure is snug, but without compressing the skin, and that it is parallel with the floor. Patients should not have held their breath while measuring waist circumference.
12-Lead Electrocardiogram (ECG): ECGs (standard 12-lead) were obtained annually. Site personnel made every attempt to perform a patient's ECG using the same equipment at each visit. ECGs were reviewed by the site for the detection of silent MI. Silent MIs were sent for event adjudication. All post-randomization ECGs (protocol-specified and other) were sent to the CEC for evaluation of silent MI. The 12-lead ECG parameters included Heart Rate (bpm), PR Interval (msec), QRS Interval (msec), QT Interval (msec), and QTc Interval (msec) were measured, and Overall Interpretation and Silent MI (Yes/No) were summarized for all patients at Screening (Visit 1), Randomization visit (Visit 2; Day 0) and all other follow-up visits including the last visit of the study.
A treatment-emergent PCS high value at any time was defined as a change from a value less than or equal to the defined PCS value at baseline to a PCS high value at any post-baseline measurement. A treatment-emergent PCS low value at any time was defined as a change from a value greater than or equal to the lower PCS value at baseline to a PCS low value at any post-baseline measurement.
As an additional exploratory analysis, the relationship between post-baseline biomarker values and treatment effects with the primary and key secondary endpoints were assessed by adding biomarker values (for example, at 4 months, or at 1 year, etc.) as time-dependent covariates in the Cox proportional hazards model. Diagnostic plots for the proportional hazard's assumption was evaluated. Weight was measured at the screening visit and at all follow-up visits, including the last visit of the study. Waist circumference was measured at the randomization visit (Visit 2; Day 0), Visit 5 (Day 720) and the last visit of the study. Descriptive statistics were presented by visit and treatment group for baseline, post-treatment change from baseline, and the percent change from baseline. Analysis methods for repeated measurements were used to compare percent change from baseline between treatments.

[1] = Baseline (Visit 2), Safety population
[2] = Visit 9 (n = 8), Safety population
[3] = any post-baseline visit, 3683 patients with data
[4] = any post-baseline visit, 3823 patients with data
[5] = any post-baseline visit, 3834 patients with data
[6] = any post-baseline visit, 3983 patients with data

Structure (SMILES): CC/C=C\C/C=C\C/C=C\C/C=C\C/C=C\CCCC(=O)OCC [AMR101, eicosapentaenoic acid ethyl ester]
- Diastolic Blood Pressure, mean baseline value [1]: 78.1 mmHg
- ECG Heart Rate, mean baseline value [1]: 66.6 beats/minute
- Heart Rate (vital sign), mean baseline value [1]: 68.1 beats/minute
- PR Interval, mean baseline value [1]: 172.2 ms
- QTc Interval, mean baseline value [1]: 422.4 ms
- Systolic Blood Pressure, mean baseline value [1]: 132.6 mmHg
- Diastolic Blood Pressure, mean change from baseline (Last Visit, Safety population): −0.7 mmHg
- ECG Heart Rate, mean change from baseline (Last Visit, Safety population): 2.1 beats/minute
- Heart Rate (vital sign), mean change from baseline (Last Visit, Safety population): 1.7 beats/minute
- PR Interval, mean change from baseline (Last Visit, Safety population): 1.7 ms
- QTc Interval, mean change from baseline (Last Visit, Safety population): 5.0 ms
- Systolic Blood Pressure, mean change from baseline (Last Visit, Safety population): 0.9 mmHg
- ECG TEAE - ECG signs of myocardial ischemia, % patients (Safety population, N = 4089): (0.0) %
- ECG TEAE - ECG signs of myocardial ischemia, n patients (Safety population, N = 4089): 2
- ECG TEAE - Electrocardiogram PR prolongation, % patients (Safety population, N = 4089): (0.0) %
- ECG TEAE - Electrocardiogram PR prolongation, n patients (Safety population, N = 4089): 0
- ECG TEAE - Electrocardiogram Q wave abnormal, % patients (Safety population, N = 4089): (0.0) %
- ECG TEAE - Electrocardiogram Q wave abnormal, n patients (Safety population, N = 4089): 1
- ECG TEAE - Electrocardiogram QRS complex abnormal, % patients (Safety population, N = 4089): (0.0) %
- ECG TEAE - Electrocardiogram QRS complex abnormal, n patients (Safety population, N = 4089): 2
- ECG TEAE - Electrocardiogram QT prolonged, % patients (Safety population, N = 4089): (0.2) %
- ECG TEAE - Electrocardiogram QT prolonged, n patients (Safety population, N = 4089): 10
- ECG TEAE - Electrocardiogram ST segment abnormal, % patients (Safety population, N = 4089): (0.1) %
- ECG TEAE - Electrocardiogram ST segment abnormal, n patients (Safety population, N = 4089): 6
- ECG TEAE - Electrocardiogram ST segment depression, % patients (Safety population, N = 4089): (0.1) %
- ECG TEAE - Electrocardiogram ST segment depression, n patients (Safety population, N = 4089): 4
- ECG TEAE - Electrocardiogram ST-T change, % patients (Safety population, N = 4089): (0.0) %
- ECG TEAE - Electrocardiogram ST-T change, n patients (Safety population, N = 4089): 1
- ECG TEAE - Electrocardiogram ST-T segment abnormal, % patients (Safety population, N = 4089): (0.0) %
- ECG TEAE - Electrocardiogram ST-T segment abnormal, n patients (Safety population, N = 4089): 2
- ECG TEAE - Electrocardiogram T wave abnormal, % patients (Safety population, N = 4089): (0.1) %
- ECG TEAE - Electrocardiogram T wave abnormal, n patients (Safety population, N = 4089): 6
- ECG TEAE - Electrocardiogram T wave amplitude decreased, % patients (Safety population, N = 4089): (0.0) %
- ECG TEAE - Electrocardiogram T wave amplitude decreased, n patients (Safety population, N = 4089): 0
- ECG TEAE - Electrocardiogram T wave inversion, % patients (Safety population, N = 4089): (0.2) %
- ECG TEAE - Electrocardiogram T wave inversion, n patients (Safety population, N = 4089): 7
- ECG TEAE - Electrocardiogram T wave normal, % patients (Safety population, N = 4089): (0.0) %
- ECG TEAE - Electrocardiogram T wave normal, n patients (Safety population, N = 4089): 0
- ECG TEAE - Electrocardiogram abnormal, % patients (Safety population, N = 4089): (0.2) %
- ECG TEAE - Electrocardiogram abnormal, n patients (Safety population, N = 4089): 10
- ECG TEAE - Electrocardiogram change, % patients (Safety population, N = 4089): (0.1) %
- ECG TEAE - Electrocardiogram change, n patients (Safety population, N = 4089): 3
- ECG TEAE - Exercise electrocardiogram abnormal, % patients (Safety population, N = 4089): (0.0) %
- ECG TEAE - Exercise electrocardiogram abnormal, n patients (Safety population, N = 4089): 1
- Diastolic Blood Pressure, mean change from baseline (Visit 3, Safety population): 0.1 mmHg
- Heart Rate (vital sign), mean change from baseline (Visit 3, Safety population): 1.2 beats/minute
- Systolic Blood Pressure, mean change from baseline (Visit 3, Safety population): −0.5 mmHg
- Diastolic Blood Pressure, mean change from baseline (Visit 4, Safety population): −0.1 mmHg
- ECG Heart Rate, mean change from baseline (Visit 4, Safety population): 1.2 beats/minute
- Heart Rate (vital sign), mean change from baseline (Visit 4, Safety population): 0.9 beats/minute
- PR Interval, mean change from baseline (Visit 4, Safety population): -0.3 ms
- QTc Interval, mean change from baseline (Visit 4, Safety population): 1.8 ms
- Systolic Blood Pressure, mean change from baseline (Visit 4, Safety population): −0.2 mmHg
- Diastolic Blood Pressure, mean change from baseline (Visit 5, Safety population): −0.1 mmHg
- ECG Heart Rate, mean change from baseline (Visit 5, Safety population): 1.7 beats/minute
- Heart Rate (vital sign), mean change from baseline (Visit 5, Safety population): 1.3 beats/minute
- PR Interval, mean change from baseline (Visit 5, Safety population): 0.4 ms
- QTc Interval, mean change from baseline (Visit 5, Safety population): 2.8 ms
- Systolic Blood Pressure, mean change from baseline (Visit 5, Safety population): 0.5 mmHg
- Diastolic Blood Pressure, mean change from baseline (Visit 6, Safety population): −0.4 mmHg
- ECG Heart Rate, mean change from baseline (Visit 6, Safety population): 1.6 beats/minute
- Heart Rate (vital sign), mean change from baseline (Visit 6, Safety population): 1.4 beats/minute
- PR Interval, mean change from baseline (Visit 6, Safety population): 0.8 ms
- QTc Interval, mean change from baseline (Visit 6, Safety population): 3.7 ms
- Systolic Blood Pressure, mean change from baseline (Visit 6, Safety population): 0.9 mmHg
- Diastolic Blood Pressure, mean change from baseline (Visit 7, Safety population): −0.5 mmHg
- ECG Heart Rate, mean change from baseline (Visit 7, Safety population): 1.8 beats/minute
- Heart Rate (vital sign), mean change from baseline (Visit 7, Safety population): 1.5 beats/minute
- PR Interval, mean change from baseline (Visit 7, Safety population): 1.4 ms
- QTc Interval, mean change from baseline (Visit 7, Safety population): 5.0 ms
- Systolic Blood Pressure, mean change from baseline (Visit 7, Safety population): 0.8 mmHg
- Diastolic Blood Pressure, mean change from baseline (Visit 8, Safety population): −1.0 mmHg
- ECG Heart Rate, mean change from baseline (Visit 8, Safety population): 1.4 beats/minute
- Heart Rate (vital sign), mean change from baseline (Visit 8, Safety population): 0.9 beats/minute
- PR Interval, mean change from baseline (Visit 8, Safety population): 2.2 ms
- QTc Interval, mean change from baseline (Visit 8, Safety population): 6.6 ms
- Systolic Blood Pressure, mean change from baseline (Visit 8, Safety population): 0.4 mmHg
- PR Interval, mean change from baseline (Visit 9 (n = 5), Safety population): -21.2 ms
- ECG Heart Rate, mean change from baseline (Visit 9 (n = 7), Safety population): 7.6 beats/minute
- Diastolic Blood Pressure, mean change from baseline [2]: −2.7 mmHg
- Heart Rate (vital sign), mean change from baseline [2]: 2.8 beats/minute
- Systolic Blood Pressure, mean change from baseline [2]: −5.4 mmHg
- PCS ECG finding: PR Interval <120 msec, % patients [3]: (7.1) %
- PCS ECG finding: PR Interval <120 msec, n patients [3]: 261
- PCS ECG finding: PR Interval >120 msec and increase >20 msec from baseline, % patients [3]: (24.8) %
- PCS ECG finding: PR Interval >120 msec and increase >20 msec from baseline, n patients [3]: 913
- PCS ECG finding: QTc Interval >500 msec, % patients [4]: (5.4) %
- PCS ECG finding: QTc Interval >500 msec, n patients [4]: 208
- PCS ECG finding: QRS Interval >110 msec, % patients [5]: (29.3) %
- PCS ECG finding: QRS Interval >110 msec, n patients [5]: 1124
- Diastolic Blood Pressure Decrease of ≥10 mmHg, % patients [6]: (39.4) %
- Diastolic Blood Pressure Decrease of ≥10 mmHg, n patients [6]: 1569
- Diastolic Blood Pressure Increase of ≥10 mmHg, % patients [6]: (36.2) %
- Diastolic Blood Pressure Increase of ≥10 mmHg, n patients [6]: 1442
- Diastolic Blood Pressure PCS High ≥100 mmHg and increase of ≥10 mmHg, % patients [6]: (4.5) %
- Diastolic Blood Pressure PCS High ≥100 mmHg and increase of ≥10 mmHg, n patients [6]: 179
- Diastolic Blood Pressure PCS High ≥100 mmHg, % patients [6]: (5.6) %
- Diastolic Blood Pressure PCS High ≥100 mmHg, n patients [6]: 223
- Diastolic Blood Pressure PCS Low ≤50 mmHg and decrease of ≥10 mmHg, % patients [6]: (0.9) %
- Diastolic Blood Pressure PCS Low ≤50 mmHg and decrease of ≥10 mmHg, n patients [6]: 35
- Diastolic Blood Pressure PCS Low ≤50 mmHg, % patients [6]: (1.1) %
- Diastolic Blood Pressure PCS Low ≤50 mmHg, n patients [6]: 42
- Pulse Decrease of ≥15 beats/min, % patients [6]: (14.1) %
- Pulse Decrease of ≥15 beats/min, n patients [6]: 562
- Pulse Increase of ≥15 beats/min, % patients [6]: (27.4) %
- Pulse Increase of ≥15 beats/min, n patients [6]: 1092
- Pulse PCS High ≥90 beats/min and increase of ≥15 beats/min, % patients [6]: (9.3) %
- Pulse PCS High ≥90 beats/min and increase of ≥15 beats/min, n patients [6]: 370
- Pulse PCS High ≥90 beats/min, % patients [6]: (13.8) %
- Pulse PCS High ≥90 beats/min, n patients [6]: 551
- Pulse PCS Low ≤50 beats/min and decrease of ≥15 beats/min, % patients [6]: (1.7) %
- Pulse PCS Low ≤50 beats/min and decrease of ≥15 beats/min, n patients [6]: 68
- Pulse PCS Low ≤50 beats/min, % patients [6]: (7.4) %
- Pulse PCS Low ≤50 beats/min, n patients [6]: 293
- Systolic Blood Pressure Decrease of ≥20 mmHg, % patients [6]: (25.3) %
- Systolic Blood Pressure Decrease of ≥20 mmHg, n patients [6]: 1009
- Systolic Blood Pressure Increase of ≥20 mmHg, % patients [6]: (29.2) %
- Systolic Blood Pressure Increase of ≥20 mmHg, n patients [6]: 1163
- Systolic Blood Pressure PCS High ≥160 mmHg and increase of ≥20 mmHg, % patients [6]: (11.3) %
- Systolic Blood Pressure PCS High ≥160 mmHg and increase of ≥20 mmHg, n patients [6]: 450
- Systolic Blood Pressure PCS High ≥160 mmHg, % patients [6]: (18.0) %
- Systolic Blood Pressure PCS High ≥160 mmHg, n patients [6]: 715
- Systolic Blood Pressure PCS Low ≤90 mmHg and decrease of ≥20 mmHg, % patients [6]: (0.7) %
- Systolic Blood Pressure PCS Low ≤90 mmHg and decrease of ≥20 mmHg, n patients [6]: 27
- Systolic Blood Pressure PCS Low ≤90 mmHg, % patients [6]: (1.0) %
- Systolic Blood Pressure PCS Low ≤90 mmHg, n patients [6]: 40
